Where a SMILES comes first, the peptide text is derived from it. [ ]: non-standard residue; d: D form.
Tests used:
Format in all cases: binding
PSD-95-PDZ2 [1] = target: T1, PSD-95-PDZ2 (Homo sapiens, UniProt P78352); test: Isothermal titration calorimetry (ITC)
T1 construct: 7xHis (N); made in house; host or cells: Escherichia coli B21 pLys (for the mutants, 'as previously described')
Method: Isothermal titration calorimetry (ITC). The ITC assays were performed in NaPi 50 nM, 50 nM NaCl, pH 7.2 buffer filtered with a Corning® bottle-top vacuum filter system of a pore size of 0.22 μM, that was used to dissolve the peptides. Proteins were dialyzed against this buffer using Amicon® Ultra-15 centrifugal filter units, with a MWCO 3000 Da.
This assay was performed on an ITC200. The instrument differential power (DP) was set to 10 and the syringe rotating speed to 600 RPM. The assay setup consisted of introducing the protein inside the cell and the peptide (titrant) on the syringe. Calorimetry was performed at 25° C. Each analysis was performed in triplicates. Furthermore, several runs of peptide into buffer were performed in order to remove injection residual heat. Runs were analyzed with Origin 7.0 software (OriginLab).

PSD-95-PDZ2 [2] = target: T1, PSD-95-PDZ2; test: Fluorescence polarization (FP) competition assay against cyclic nNOS TAMRA probe; details: for Relative Ki (Ki mut/Ki WT): FP inhibition constant normalized to WT value; for Ki: FP competition, cyclic nNOS TAMRA probe, mean of triplicates, N.B. = not binding, read-out: Ki
PSD-95-PDZ2 [3] = target: T2, PSD-95-PDZ2 (Homo sapiens, UniProt P78352, V178C); test: SPOT peptide array screening with TAMRA labelled PSD-95-PDZ2; details: SPOT array, TAMRA labelled PSD-95-PDZ2-V178C, normalized to WT
T2 construct: screened with the TAMRA labelled PSD-95-PDZ2-V178C domain; 7xHis (N); made in house
Outline: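 First, arrays were blocked 1 h and scanned to record background. Next, 50 nM labelled PDZ2-V178C in PBS pH 7.2 with 0.5% BSA bound for 1 h protected from light. Finally, after washes, 532 nm fluorescence was measured and background-corrected.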

Row | Structure (SMILES) | Kd (PSD-95-PDZ2 [1]; 25° C., tested up to 100 μM, read-out: affinity (Kd) by ITC) | fold improved binding affinity compared to the wild-type peptide (PSD-95-PDZ2 [1]; ITC Kd) | Relative Ki (Ki mut/Ki WT) (PSD-95-PDZ2 [2]) | Normalized SPOT fluorescence (Mut/WT) (PSD-95-PDZ2 [3]) | Ki (PSD-95-PDZ2 [2])
1 | CC[C@H](C)[C@@H]1NC(=O)[C@H]([C@@H](C)O)NC(=O)[C@H](CCCCN)NC(=O)[C@@H]2CCCN2C(=O)[C@H]([C@@H](C)O)NC(=O)CNC(=O)[C@H](CC(=O)O)NC(=O)CNC(=O)[C@H]([C@@H](C)O)NC(=O)[C@H](Cc2ccccc2)NC(=O)[C@H]([C@@H](C)O)NC(=O)[C@H]([C@@H](C)O)NC(=O)[C@H](CCC(=O)O)NC(=O)[C@H](CC(C)C)NC(=O)[C@H](Cc2c[nH]cn2)NC(=O)[C@H]([C@@H](C)O)NC(=O)[C@H](CCC(N)=O)NC(=O)CNC(=O)[C@H]2CCCN2C(=O)[C@H](CCC(N)=O)NC(=O)[C@H]([C@@H](C)O)NC(=O)[C@H](C(C)C)NC(=O)[C@H](CCCNC(=N)N)NC1=O [SEQ ID NO: 12] | 2200 ± 300 nM |  |  |  | 
2 | CC[C@H](C)[C@@H]1NC(=O)[C@H]([C@@H](C)O)NC(=O)[C@H](CCCCN)NC(=O)[C@@H]2CCCN2C(=O)[C@H](CCC(=O)O)NC(=O)CNC(=O)[C@H](CC(=O)O)NC(=O)CNC(=O)[C@H](Cc2c[nH]c3ccccc23)NC(=O)[C@H](Cc2ccccc2)NC(=O)[C@H]([C@@H](C)O)NC(=O)[C@H]([C@@H](C)O)NC(=O)[C@H](CCC(=O)O)NC(=O)[C@H](CC(C)C)NC(=O)[C@H](Cc2c[nH]cn2)NC(=O)[C@H]([C@@H](C)O)NC(=O)[C@H](CCC(N)=O)NC(=O)CNC(=O)[C@H]2CCCN2C(=O)[C@H](CCC(N)=O)NC(=O)[C@H]([C@@H](C)O)NC(=O)[C@H](C(C)C)NC(=O)[C@H](CCCNC(=N)N)NC1=O [SEQ ID NO: 14] (cyclo(THLETTFWGDGEPKTIRVTQ[dP]GQ)) |  | 16 fold |  |  | 
3 | CC[C@H](C)[C@@H]1NC(=O)[C@H]([C@@H](C)O)NC(=O)[C@H](CCCCN)NC(=O)[C@H](C)NC(=O)[C@H]([C@@H](C)O)NC(=O)CNC(=O)[C@H](CC(=O)O)NC(=O)CNC(=O)[C@H]([C@@H](C)O)NC(=O)[C@H](Cc2ccccc2)NC(=O)[C@H]([C@@H](C)O)NC(=O)[C@H]([C@@H](C)O)NC(=O)[C@H](CCC(=O)O)NC(=O)[C@H](CC(C)C)NC(=O)[C@H](Cc2c[nH]cn2)NC(=O)[C@H]([C@@H](C)O)NC(=O)[C@H](CCC(N)=O)NC(=O)CNC(=O)[C@H]2CCCN2C(=O)[C@H](CCC(N)=O)NC(=O)[C@H]([C@@H](C)O)NC(=O)[C@H](C(C)C)NC(=O)[C@H](CCCNC(=N)N)NC1=O [compound 67] (cyclo(THLETTFTGDGTAKTIRVTQ[dP]GQ)) |  |  | 1.07 | 0.93 | 
4 | CC[C@H](C)[C@@H]1NC(=O)[C@H](C)NC(=O)[C@H](CCCCN)NC(=O)[C@@H]2CCCN2C(=O)[C@H]([C@@H](C)O)NC(=O)CNC(=O)[C@H](CC(=O)O)NC(=O)CNC(=O)[C@H]([C@@H](C)O)NC(=O)[C@H](Cc2ccccc2)NC(=O)[C@H]([C@@H](C)O)NC(=O)[C@H]([C@@H](C)O)NC(=O)[C@H](CCC(=O)O)NC(=O)[C@H](CC(C)C)NC(=O)[C@H](Cc2c[nH]cn2)NC(=O)[C@H]([C@@H](C)O)NC(=O)[C@H](CCC(N)=O)NC(=O)CNC(=O)[C@H]2CCCN2C(=O)[C@H](CCC(N)=O)NC(=O)[C@H]([C@@H](C)O)NC(=O)[C@H](C(C)C)NC(=O)[C@H](CCCNC(=N)N)NC1=O [compound 69] (cyclo(THLETTFTGDGTPKAIRVTQ[dP]GQ)) |  |  | 11.33 | 0.09 | 17 µM
5 | CC(C)C[C@@H]1NC(=O)[C@H](Cc2c[nH]cn2)NC(=O)[C@H]([C@@H](C)O)NC(=O)[C@H](CCC(N)=O)NC(=O)CNC(=O)[C@H]2CCCN2C(=O)[C@H](CCC(N)=O)NC(=O)[C@H]([C@@H](C)O)NC(=O)[C@H](C(C)C)NC(=O)[C@H](CCCNC(=N)N)NC(=O)[C@H](C)NC(=O)[C@H]([C@@H](C)O)NC(=O)[C@H](CCCCN)NC(=O)[C@@H]2CCCN2C(=O)[C@H]([C@@H](C)O)NC(=O)CNC(=O)[C@H](CC(=O)O)NC(=O)CNC(=O)[C@H]([C@@H](C)O)NC(=O)[C@H](Cc2ccccc2)NC(=O)[C@H]([C@@H](C)O)NC(=O)[C@H]([C@@H](C)O)NC(=O)[C@H](CCC(=O)O)NC1=O [compound 70] (cyclo(THLETTFTGDGTPKTARVTQ[dP]GQ)) |  |  | 1.17 | 0.06 | 1.76 µM

Continued, values first:

Row | Kd (PSD-95-PDZ2 [1]; 25° C., tested up to 100 μM, read-out: affinity (Kd) by ITC) | fold improved binding affinity compared to the wild-type peptide (PSD-95-PDZ2 [1]; ITC Kd) | Relative Ki (Ki mut/Ki WT) (PSD-95-PDZ2 [2]) | Normalized SPOT fluorescence (Mut/WT) (PSD-95-PDZ2 [3]) | Ki (PSD-95-PDZ2 [2]) | Structure (SMILES)
6 |  |  | 1.65 | 0.15 |  | CC[C@H](C)[C@@H]1NC(=O)[C@H]([C@@H](C)O)NC(=O)[C@H](CCCCN)NC(=O)[C@@H]2CCCN2C(=O)[C@H]([C@@H](C)O)NC(=O)CNC(=O)[C@H](CC(=O)O)NC(=O)CNC(=O)[C@H]([C@@H](C)O)NC(=O)[C@H](Cc2ccccc2)NC(=O)[C@H]([C@@H](C)O)NC(=O)[C@H]([C@@H](C)O)NC(=O)[C@H](CCC(=O)O)NC(=O)[C@H](CC(C)C)NC(=O)[C@H](Cc2c[nH]cn2)NC(=O)[C@H]([C@@H](C)O)NC(=O)[C@H](CCC(N)=O)NC(=O)CNC(=O)[C@H]2CCCN2C(=O)[C@H](CCC(N)=O)NC(=O)[C@H]([C@@H](C)O)NC(=O)[C@H](C(C)C)NC(=O)[C@H](C)NC1=O [compound 71] (cyclo(THLETTFTGDGTPKTIAVTQ[dP]GQ))
7 |  |  | 1.49 | 0.09 |  | CC[C@H](C)[C@@H]1NC(=O)[C@H]([C@@H](C)O)NC(=O)[C@H](CCCCN)NC(=O)[C@@H]2CCCN2C(=O)[C@H]([C@@H](C)O)NC(=O)CNC(=O)[C@H](CC(=O)O)NC(=O)CNC(=O)[C@H]([C@@H](C)O)NC(=O)[C@H](Cc2ccccc2)NC(=O)[C@H]([C@@H](C)O)NC(=O)[C@H]([C@@H](C)O)NC(=O)[C@H](CCC(=O)O)NC(=O)[C@H](CC(C)C)NC(=O)[C@H](Cc2c[nH]cn2)NC(=O)[C@H]([C@@H](C)O)NC(=O)[C@H](CCC(N)=O)NC(=O)CNC(=O)[C@H]2CCCN2C(=O)[C@H](CCC(N)=O)NC(=O)[C@H]([C@@H](C)O)NC(=O)[C@H](C)NC(=O)[C@H](CCCNC(=N)N)NC1=O [compound 72] (cyclo(THLETTFTGDGTPKTIRATQ[dP]GQ))
8 |  |  | 1.03 | 0.61 |  | CC[C@H](C)[C@@H]1NC(=O)[C@H]([C@@H](C)O)NC(=O)[C@H](CCCCN)NC(=O)[C@@H]2CCCN2C(=O)[C@H]([C@@H](C)O)NC(=O)CNC(=O)[C@H](CC(=O)O)NC(=O)CNC(=O)[C@H]([C@@H](C)O)NC(=O)[C@H](Cc2ccccc2)NC(=O)[C@H]([C@@H](C)O)NC(=O)[C@H]([C@@H](C)O)NC(=O)[C@H](CCC(=O)O)NC(=O)[C@H](CC(C)C)NC(=O)[C@H](Cc2c[nH]cn2)NC(=O)[C@H]([C@@H](C)O)NC(=O)[C@H](CCC(N)=O)NC(=O)CNC(=O)[C@H]2CCCN2C(=O)[C@H](CCC(N)=O)NC(=O)[C@H](C)NC(=O)[C@H](C(C)C)NC(=O)[C@H](CCCNC(=N)N)NC1=O [compound 73] (cyclo(THLETTFTGDGTPKTIRVAQ[dP]GQ))
9 |  |  | 1.01 | 0.42 |  | CC[C@H](C)[C@@H]1NC(=O)[C@H]([C@@H](C)O)NC(=O)[C@H](CCCCN)NC(=O)[C@@H]2CCCN2C(=O)[C@H]([C@@H](C)O)NC(=O)CNC(=O)[C@H](CC(=O)O)NC(=O)CNC(=O)[C@H]([C@@H](C)O)NC(=O)[C@H](Cc2ccccc2)NC(=O)[C@H]([C@@H](C)O)NC(=O)[C@H]([C@@H](C)O)NC(=O)[C@H](CCC(=O)O)NC(=O)[C@H](CC(C)C)NC(=O)[C@H](Cc2c[nH]cn2)NC(=O)[C@H]([C@@H](C)O)NC(=O)[C@H](CCC(N)=O)NC(=O)CNC(=O)[C@H]2CCCN2C(=O)[C@H](C)NC(=O)[C@H]([C@@H](C)O)NC(=O)[C@H](C(C)C)NC(=O)[C@H](CCCNC(=N)N)NC1=O [compound 74] (cyclo(THLETTFTGDGTPKTIRVTA[dP]GQ))
